In US10668094B2, “Selective inhibitors of Alpha2-containing isoforms of Na,K-ATPase and use thereof for reduction of intraocular pressure” (Yeda Research and Development Co. Ltd., priority 2015, dated 2020):
Where two headings read alike, the source gives them in different places.

How the values were obtained:
[1] = target: human Na,K-ATPase α1β1FXYD1 (Homo sapiens (Human), UniProt P05023); format: biochemical
[2] = target: human Na,K-ATPase α2β1FXYD1 (Homo sapiens, UniProt P50993); format: biochemical
[3] = system: human Na,K-ATPase α2β1FXYD1; format: biochemical
[4] = target: human Na,K-ATPase α2β2FXYD1 (Homo sapiens (Human), UniProt P50993); format: biochemical
[5] = target: human Na,K-ATPase α2β3FXYD1 (Homo sapiens (Human), UniProt P50993+P54709); assay: biochemical; format: biochemical
[6] = system: basal IOP in rabbits; assay: Basal IOP in rabbits, topical administration; format: in vivo, rabbit

SMILES | Ki ([1]; read-out: Ki in nM ± SEM α1β1) [nM] | Ki ([2]; read-out: Ki in nM ± SEM α2β1) [nM] | Selectivity Ki ratio α1β1/α2β1 [3] | Selectivity Ki ratio α1β1/α2β2 [4] | Ki ([4]; read-out: Ki in nM ± SEM α2β2) [nM] | Selectivity Ki ratio α1β1/α2β3 [5] | Ki ([5]; read-out: Ki in nM ± SEM α2β3) [nM] | selectivity for α2β3 over α1β1 (Ki α1β1:α2β3 ratio) [5] | further results
CC1CN(CCS(N)(=O)=O)CCC(O[C@@H]2C(C)O[C@@H](OC3C(C)OC(O[C@H]4CC[C@@]5(C)C(CCC6C5CC(O)[C@]5(C)[C@@H](C7=CC(=O)OC7)CC[C@]65O)C4)C[C@@H]3O)C[C@@H]2O)O1 (stereo in doubt) [DESA, 2-(7-(((2R,3S,4S,6S)-6-(((2R,3R,4S,6S)-6-(((3S,5R,8R,9S,10S,12R,13S,14S,17R)-12,14-dihydroxy-10,13-dimethyl-17-(5-oxo-2,5-dihydrofuran-3-yl)hexadecahydro-1H-cyclopenta[a]phenanthren-3-yl)oxy)-4-hydroxy-2-methyltetrahydro-2H-pyran-3-yl)oxy)-4-hydroxy-2-methyltetrahydro-2H-pyran-3-yl)oxy)-2-methyl-1,4-oxazepan-4-yl)ethanesulfonamide] | 301 ± 23 | 38.9 ± 2.2 | 7.7 | 9.5 | 31.5 ± 4.4 | 15 | 20.1 ± 0.9 | – | –
CC1CN(CCS(C)(=O)=O)CCC(O[C@@H]2C(C)O[C@@H](OC3C(C)OC(O[C@H]4CC[C@@]5(C)C(CCC6C5CC(O)[C@]5(C)[C@@H](C7=CC(=O)OC7)CC[C@]65O)C4)C[C@@H]3O)C[C@@H]2O)O1 (stereo in doubt) [DESM, 4-((3S,5R,8R,9S,10S,12R,13S,14S,17R)-12,14-dihydroxy-3-(((2S,4S,5R,6R)-4-hydroxy-5-(((2S,4S,5S,6R)-4-hydroxy-6-methyl-5-((2-methyl-4-(2-(methylsulfonyl)ethyl)-1,4-oxazepan-7-yl)oxy)tetrahydro-2H-pyran-2-yl)oxy)-6-methyltetrahydro-2H-pyran-2-yl)oxy)-10,13-dimethylhexadecahydro-1H-cyclopenta[a]phenanthren-17-yl)furan-2(5H)-one] | 464 ± 14 | 49.2 ± 1.9 | 9.4 | 14.6 | 31.7 ± 3.2 | 18.8 | 24.7 ± 2.1 | – | –
CC1CN(CS(C)(=O)=O)CCC(O[C@@H]2C(C)O[C@@H](OC3C(C)OC(O[C@H]4CC[C@@]5(C)C(CCC6C5CC(O)[C@]5(C)[C@@H](C7=CC(=O)OC7)CC[C@]65O)C4)C[C@@H]3O)C[C@@H]2O)O1 (stereo in doubt) [DMSM, 4-((3S,5R,8R,9S,10S,12R,13S,14S,17R)-12,14-dihydroxy-3-(((2S,4S,5R,6R)-4-hydroxy-5-(((2S,4S,5S,6R)-4-hydroxy-6-methyl-5-((2-methyl-4-((methylsulfonyl)methyl)-1,4-oxazepan-7-yl)oxy)tetrahydro-2H-pyran-2-yl)oxy)-6-methyltetrahydro-2H-pyran-2-yl)oxy)-10,13-dimethylhexadecahydro-1H-cyclopenta[a]phenanthren-17-yl)furan-2(5H)-one] | 944 ± 123 | 137 ± 9.8 | 6.9 | 7.7 | 123 ± 7.3 | 10.6 | 89 | – | –
CC1CN(C2CCCCC2)CCC(O[C@@H]2C(C)O[C@@H](OC3C(C)OC(O[C@H]4CC[C@@]5(C)C(CCC6C5CC(O)[C@]5(C)[C@@H](C7=CC(=O)OC7)CC[C@]65O)C4)C[C@@H]3O)C[C@@H]2O)O1 (stereo in doubt) [DcH, 4-((3S,5R,8R,9S,10S,12R,13S,14S,17R)-3-(((2S,4S,5R,6R)-5-(((2S,4S,5S,6R)-5((4-cyclohexyl-2-methyl-1,4-oxazepan-7-yl)oxy)-4-hydroxy-6-methyltetrahydro-2H-pyran-2-yl)oxy)-4-hydroxy-6-methyltetrahydro-2H-pyran-2-yl)oxy)-12,14-dihydroxy-10,13-dimethylhexadecahydro-1H-cyclopenta[a]phenanthren-17-yl)furan-2(5H)-one] | 70.4 ± 4.1 | 15.2 ± 3.7 | 4.6 | 4.6 | 15.3 ± 2.9 | 10.1 | 11.7 ± 4.5 | 10-12 fold | –
CC1CN(C2CCCC2)CCC(O[C@@H]2C(C)O[C@@H](OC3C(C)OC(O[C@H]4CC[C@@]5(C)C(CCC6C5CC(O)[C@]5(C)[C@@H](C7=CC(=O)OC7)CC[C@]65O)C4)C[C@@H]3O)C[C@@H]2O)O1 (stereo in doubt) [DcPe, 4-((3S,5R,8R,9S,10S,12R,13S,14S,17R)-3-(((2S,4S,5R,6R)-5-(((2S,4S,5S,6R)-5-((4-cyclopentyl-2-methyl-1,4-oxazepan-7-yl)oxy)-4-hydroxy-6-methyltetrahydro-2H-pyran-2-yl)oxy)-4-hydroxy-6-methyltetrahydro-2H-pyran-2-yl)oxy)-12,14-dihydroxy-10,13-dimethylhexadecahydro-1H-cyclopenta[a]phenanthren-17-yl)furan-2(5H)-one] | 138 ± 21 | 33.4 ± 7.5 | 4.1 | 4.1 | 33.5 ± 11.9 | 5 | 27.6 ± 9.5 | 10-12 fold | –
CC1CN(Cc2ccccc2)CCC(O[C@@H]2[C@H](C)O[C@@H](O[C@@H]3[C@H](C)O[C@@H](O[C@H]4CC[C@@]5(C)C(CCC6C5C[C@H](O)[C@]5(C)[C@@H](C7=CC(=O)OC7)CC[C@]65O)C4)C[C@@H]3O)C[C@@H]2O)O1 (stereo partly drawn) [DBz, 4-(3S,5R,8R,9S,10S,12R,13S,14S,17R)-3-(((2S,4S,5R,6R)-5-(((2S,4S,5S,6R)-5 ((4-benzyl-2-methyl-1,4-oxazepan-7-yl)oxy)-4-hydroxy-6-methyltetrahydro-2H-pyran-2-ypoxy)-4-hydroxy-6-methyltetrahydro-2H-pyran-2-yl)oxy)-12,14-dihydroxy-10,13-dimethythexadecahydro-1H-cyclopenta[a]phenanthren-17-yl)furan-2(5H)-one] | 57.9 ± 15.5 | 10.1 ± 2.2 | 5.7 | 8.5 | 6.8 ± 1.2 | 10.3 | 5.6 ± 1.6 | 10-12 fold | –
CC1CN(CC(F)(F)F)CCC(O[C@@H]2[C@H](C)O[C@@H](O[C@@H]3[C@H](C)O[C@@H](O[C@H]4CC[C@@]5(C)C(CCC6C5C[C@H](O)[C@]5(C)[C@@H](C7=CC(=O)OC7)CC[C@]65O)C4)C[C@@H]3O)C[C@@H]2O)O1 (some centres unmarked) [DCF3] | 119 | 28.6 ± 0.9 | 4.1 | 6.5 | 18.1 ± 1.9 | 9.6 | 12.4 ± 1.5 | – | –
CC1CN(CCC2CC2)CCC(O[C@@H]2[C@H](C)O[C@@H](O[C@@H]3[C@H](C)O[C@@H](O[C@H]4CC[C@@]5(C)C(CCC6C5C[C@H](O)[C@]5(C)[C@@H](C7=CC(=O)OC7)CC[C@]65O)C4)C[C@@H]3O)C[C@@H]2O)O1 (some centres unmarked) [DEcP] | 86.1 ± 7 | 14.3 ± 2 | 6.02 | 7.1 | 12.1 ± 1.9 | 12.02 | 7.2 ± 1 | 10-12 fold | –
CCN1CCC(O[C@@H]2[C@H](C)O[C@@H](O[C@@H]3[C@H](C)O[C@@H](O[C@H]4CC[C@@]5(C)C(CCC6C5C[C@H](O)[C@]5(C)[C@@H](C7=CC(=O)OC7)CC[C@]65O)C4)C[C@@H]3O)C[C@@H]2O)OC(C)C1 (some centres unmarked) [DEt] | 138 ± 12.6 | 23.2 ± 0.9 | 5.9 | 8.3 | 16.4 ± 1.6 | 9.5 | 14.4 ± 1.27 | – | –
CC(C)OC(=O)CCC/C=C\C[C@@H]1[C@@H](CC[C@@H](O)CCc2ccccc2)[C@H](O)C[C@@H]1O [Latanoprost, reference compound] | – | – | – | – | – | – | – | – | time after which IOP returned to the control value ([6]; 1 mM DcB, 0.005% Latanoprost): 12 h; steady-state IOP as % of the unchanged control values ([6]; after 3-8 hours): 85%; steady-state IOP lower than basal IOP ([6]; after 3-8 hours, basal IOP 17-18 mmHg, 1 mM DcB, 0.005% Latanoprost): 2.6±0.11 mmHg
CC(=O)O[C@H]1C[C@H](O[C@H]2[C@@H](OC(C)=O)C[C@H](O[C@H]3CC[C@@]4(C)[C@H](CC[C@@H]5[C@@H]4C[C@@H](OC(C)=O)[C@]4(C)[C@@H](C6=CC(=O)OC6)CC[C@]54O)C3)O[C@@H]2C)O[C@H](C)[C@H]1OC1CCN(C2CCC2)CC(C)O1 (stereo partly drawn) [TrisAcDcB, (2R,3R,4S,6R)-6-(((3S,5R,8R,9S,10S,12R,13S,14S,17R)-12-acetoxy-14-hydroxy-10,13-dimethyl-17-(5-oxo-2,5-dihydrofuran-3-yl)hexadecahydro-1H-cyclopenta[a]phenanthren-3-yl)oxy)-3-(((2S,4S,5R,6R)-4-acetoxy-5-((4-cyclobutyl-2-methyl-1,4-oxazepam-7-yl)oxy)-6-methyltetrahydro-2H-pyran-2-yl)oxy)-2-methyltetrahydro-2H-pyran-4-yl acetate] | – | – | – | – | – | – | – | – | Ki of α1β1 higher than that of DcB [1]: ~100 fold; Ki ([1]; read-out: Ki of α1β1FXYD1): 13200 ± 6500 nM; Ki of α2β1 higher than that of DcB [2]: ~300 fold; Ki ([2]; read-out: Ki of α2β1FXYD1): 2500 ± 490 nM; time of return of IOP to the control level ([6]; 0.05, 0.1, 0.2 mM): 12 h; time to minimum IOP ([6]; 0.05, 0.1, 0.2 mM): 5 to 6 h; maximal effect on IOP compared with parent DcB ([6]; 0.05-0.2 mM prodrug): essentially equal to that produced by the parent DcB; minimum IOP ([6]; from 15-16 mmHg, 0.05, 0.1, 0.2 mM): 12 mmHg; onset of effect on basal IOP ([6]; one 30 μl drop, 0.05, 0.1, 0.2 mM): no effect was observed at the first four hours
[O]=[V]([OH])([OH])[OH] [Vanadate, vanadate, reference compound] | – | – | – | – | – | – | – | – | Ki ([1]; read-out: apparent vanadate affinity α1β1): 480 nM; Ki ([2]; Example 2, vanadate titration, read-out: apparent vanadate affinity α2β1): 3500 nM; Ki ([4]; read-out: apparent vanadate affinity α2β2): 34000 nM; Ki ([5]; read-out: apparent vanadate affinity α2β3): 1900 nM
